Measurements published in patent publication US20210115104A1, “AMYLIN ANALOGUES” (Zealand Pharma A/S, priority 2015, published 2021).
*1 amine or outer side, *2 acyl side, *3 side chain or, on linkers, in order; H or OH if unused. Where a SMILES comes first, the peptide text is derived from it. Bridges are numbered along the chain shown (N, C = ends). [ ]: non-standard residue; d: D form. The star is where a group is joined. C20 diacid = O=C(O)CCCCCCCCCCCCCCCCCCC(=O)*; γGlu = O=C(O)[C@H](CCC(=O)[*:2])N[*:1]; Hyp = O=C(O)[C@@H]1C[C@@H](O)CN1; NMeI = CC[C@H](C)[C@H](NC)C(=O)O; Sar = CNCC(=O)O

Columns and labels:
[1] = molecular target: T1, human calcitonin receptor (hCTR2) (Homo sapiens, UniProt P30988); test: hCTR2 cAMP assay (AlphaScreen) in COS7 cells; type: cell-based; conditions: cAMP induction, COS7 cells expressing hCTR2; Table 1; read-out: hCTR2 EC50
T1 construct: expressed in transfected cells
T1 sequence (P30988 25-474): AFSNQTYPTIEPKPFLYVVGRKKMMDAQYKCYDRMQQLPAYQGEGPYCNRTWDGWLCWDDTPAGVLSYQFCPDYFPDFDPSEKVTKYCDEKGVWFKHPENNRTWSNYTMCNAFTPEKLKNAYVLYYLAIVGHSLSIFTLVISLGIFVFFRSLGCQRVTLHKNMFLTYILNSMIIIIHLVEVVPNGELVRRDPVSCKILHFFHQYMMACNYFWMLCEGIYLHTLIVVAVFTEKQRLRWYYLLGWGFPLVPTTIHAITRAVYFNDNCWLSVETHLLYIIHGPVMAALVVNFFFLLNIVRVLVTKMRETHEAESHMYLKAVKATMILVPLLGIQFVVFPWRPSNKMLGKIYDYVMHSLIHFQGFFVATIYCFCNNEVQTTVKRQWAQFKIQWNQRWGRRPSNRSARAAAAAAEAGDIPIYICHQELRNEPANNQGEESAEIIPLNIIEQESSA
Method in brief: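 Stable hCTR2 clone in RAMP-naïve COS7 cells stimulated 15 min at 37 °C with increasing peptide concentrations in Tyrode buffer pH 7.4 containing IBMX and 0.1% casein. cAMP in lysates measured by AlphaScreen; EC50 from 4-parameter logistic fit.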

[2] = molecular target: T2, human amylin receptor 3 (hAMYR3), hCTR2 co-expressed with hRAMP3 (Homo sapiens, UniProt O60896+P30988); test: hAMYR3 cAMP assay (AlphaScreen) in COS7 cells; type: cell-based; conditions: cAMP induction, COS7 cells expressing hAMYR3; Table 1; read-out: hAMYR3 EC50
T2 construct: expressed in transfected cells
T2 sequence (P30988 25-474): T1 sequence (P30988 25-474)
T2 sequence (O60896 24-148 partner): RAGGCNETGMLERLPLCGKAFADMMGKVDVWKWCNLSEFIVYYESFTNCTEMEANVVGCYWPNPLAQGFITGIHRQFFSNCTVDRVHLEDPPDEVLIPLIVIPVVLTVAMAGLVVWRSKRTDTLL
From the text: The cell line COS7, originating from African Green Monkey kidney fibroblast cells, was used for establishment of the stable cell lines described below. The COS7 cellular background was used due to it being RAMP naïve, and as such it provides the best available system for testing of the monomeric hCTR and different heterodimeric amylin receptor subtypes functionally generated by introduction of the individual RAMPs.
A cell line expressing the human amylin receptor 3 (hAMYR3) was generated in the COS7 cellular background as stable clones. In brief, hCTR2 (GI:4502547) and hRAMP3 (GI:118572586) were amplified by PCR using primers encoding terminal restriction sites for subcloning. The 5′-end primers additionally encoded a near Kozak consensus sequence to ensure efficient translation. The fidelity of the DNA encoding the receptor was confirmed by DNA sequencing. The PCR products encoding the receptor were subcloned into a proprietary tri-cistronic mammalian expression vector with RAMP3, hCTR2 and neomycin (G418) resistance marker. The mammalian expression vector encoding the receptor was transfected into COS7 cells by a standard liposome transfection method. 48 hours post-transfection, cells were seeded for limited dilution cloning and selected with 1 mg/ml G418 in the culture medium. After 3 weeks, surviving colonies of hAMY3R-expressing cells were picked, propagated and tested in the amylin efficacy assay as described in Example 3 below. The functional generation of the amylin receptor phenotype was verified in the efficacy assay by a left-shifted efficacy response to amylin relative to monomeric calcitonin receptor, and one hAMYR3-expressing clone was chosen for compound profiling.
In vitro activity of test peptides at the hCTR2 and hAMYR3 receptors was assessed by measuring the induction of cAMP following stimulation of the receptor using the AlphaScreen® cAMP Assay kit from Perkin-Elmer.
Briefly, COS7 cells expressing hCTR2 (see Example 2, above) were seeded at 30-40,000 cells per well in 96-well microtiter plates coated with 0.01% poly-L-lysine, and grown for 1 day in culture in 100 μl growth medium [DMEM, 10% FCS, Penicillin (100 IU/ml), Streptomycin (100 μg/ml)]. On the day of analysis, growth medium was removed and the cells were washed once with 200 μl Tyrode buffer [Tyrode's Salts (9.6 g/I), 10 mM HEPES, pH 7.4]. Cells were incubated in 100 μl Tyrode buffer containing increasing concentrations of test peptides, 100 µM IBMX and 0.1% casein for 15 min at 37° C. The reaction was stopped by carefully decanting off the compound/buffer medium and replacing it with lysis/detection buffer (80 μl 0.1% w/v BSA, 5 mM HEPES, 0.3% v/v Tween-20 in deionized water). After incubation at room temperature for 10 min., the cAMP content of the resulting cell lysate was estimated according to the AlphaScreen® cAMP Assay manufacturer's instructions. EC50 values were estimated by computer-aided curve fitting using the 4-parameter logistic (4PL) non-linear model.

[3] = Assessment of physical stability (Thioflavin T fibrillation); type: physicochemical; parameters: key: FND = fibrillation not detected; FD = fibrillation detected; conditions: 1 mg/ml, 40° C., ThT
Method in brief: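 1 mg/ml peptide with 40 μM ThT in 50 mM phosphate pH 7.0, 50 mM histidine pH 7.0 or 50 mM acetate pH 4.0, in triplicate. Fluorescence read every 10 min after 300 s agitation over 96 h at 40 °C. Lag-time (h) is the intersection of linear fits to stable and growth phases.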

[4] = Assessment of chemical stability (RP-HPLC normalized purity); type: physicochemical; conditions: 7 days, 40° C., Table 1
Method in brief: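 Peptides at 0.2 mg/ml in water adjusted to pH 4, 6, 7.5 or 9, incubated at 40° C for 7 days. Main-peak area-% by RP-HPLC (C8 ammonium formate or C18 TFA gradient, UV 220 nm), normalized to T=0 as 100.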

Compound	EC50 [1] [pM]	EC50 [2] [pM]	Fibrillation pH 4.0 (Ac) ([3]; 50 mM acetate buffer pH 4.0, 96 hours)	Fibrillation pH 7.0 (His) ([3]; 50 mM histidine buffer pH 7.0, 96 hours)	Fibrillation pH 7.0 (Phos.) ([3]; 50 mM phosphate buffer pH 7.0, 96 hours)	Normalized purity after 7 days, 40° C., pH 4 ([4]; pH 4, 0.2 mg/ml)	Normalized purity after 7 days, 40° C., pH 6 ([4]; pH 6, 0.2 mg/ml)	Normalized purity after 7 days, 40° C., pH 7.5 ([4]; pH 7.5, 0.2 mg/ml)	Normalized purity after 7 days, 40° C., pH 9 ([4]; pH 9, 0.2 mg/ml)
CC[C@H](C)[C@@H](C(=O)N[C@@H](CC(C)C)C(=O)N[C@@H](CO)C(=O)N[C@@H](CO)C(=O)N[C@H](C(=O)N[C@@H](CCC(=O)O)C(=O)N[C@H](C(=O)NCC(=O)N[C@@H](CO)C(=O)N[C@@H](CCC(=O)O)C(=O)N[C@H](C(=O)N1CCC[C@H]1C(N)=O)[C@@H](C)O)C(C)C)[C@@H](C)O)N(C)C(=O)[C@H](C)NC(=O)CN(C)C(=O)[C@H](Cc1ccccc1)NC(=O)[C@H](CO)NC(=O)[C@H](CO)NC(=O)[C@H](CCCNC(=N)N)NC(=O)[C@@H](NC(=O)[C@H](CC(C)C)NC(=O)[C@H](Cc1ccccc1)NC(=O)[C@H](Cc1c[nH]cn1)NC(=O)[C@H](C)NC(=O)[C@H](CC(C)C)NC(=O)[C@H](CCCNC(=N)N)NC(=O)[C@H](CCC(N)=O)NC(=O)[C@@H](NC(=O)[C@H](C)NC(=O)[C@@H]1CSSC[C@H](NC(=O)[C@H](CCCNC(=N)N)NC(=O)CC[C@H](NC(=O)CCCCCCCCCCCCCCCCCCC(=O)O)C(=O)O)C(=O)N[C@@H](CC(N)=O)C(=O)N[C@@H]([C@@H](C)O)C(=O)N[C@@H](C)C(=O)N[C@@H]([C@@H](C)O)C(=O)N1)[C@@H](C)O)C(C)C [Compound 24, [19CD]-isoGlu-R-C( )-NTAT-C( )-ATQRLAHFLVRSSF-Gly(Me)-A-Ile(Me)-LSSTEVGSETP-NH2] ({C20 diacid-γGlu}-RCNTATCATQRLAHFLVRSSF[Sar]A[NMeI]LSSTEVGSETP-NH2; disulfide 2-7)	85	190							
CC[C@H](C)[C@@H](C(=O)N[C@@H](CC(C)C)C(=O)N[C@@H](CO)C(=O)N[C@@H](CO)C(=O)N[C@H](C(=O)N[C@@H](CCC(=O)O)C(=O)N[C@H](C(=O)NCC(=O)N[C@@H](CO)C(=O)N[C@@H](Cc1ccccc1)C(=O)N[C@H](C(=O)N1C[C@H](O)C[C@H]1C(N)=O)[C@@H](C)O)C(C)C)[C@@H](C)O)N(C)C(=O)[C@H](C)NC(=O)CN(C)C(=O)[C@H](Cc1ccccc1)NC(=O)[C@H](CO)NC(=O)[C@H](CO)NC(=O)[C@H](CCCNC(=N)N)NC(=O)[C@H](CC(N)=O)NC(=O)[C@H](CC(C)C)NC(=O)[C@H](Cc1ccccc1)NC(=O)[C@H](Cc1c[nH]cn1)NC(=O)[C@H](C)NC(=O)[C@H](CC(C)C)NC(=O)[C@H](CCCNC(=N)N)NC(=O)[C@H](CCC(=O)O)NC(=O)[C@@H](NC(=O)[C@H](C)NC(=O)[C@@H]1CSSC[C@H](NC(=O)[C@H](CCCNC(=N)N)NC(=O)CC[C@H](NC(=O)CCCCCCCCCCCCCCCCCCC(=O)O)C(=O)O)C(=O)NCC(=O)N[C@@H]([C@@H](C)O)C(=O)N[C@@H](C)C(=O)N[C@@H]([C@@H](C)O)C(=O)N1)[C@@H](C)O [Compound 33, [19CD]-isoGlu-R-C( )-GTAT-C( )-ATERLAHFLNRSSF-Gly(Me)-A-Ile(Me)-LSSTEVGSFT-Hyp-NH2] ({C20 diacid-γGlu}-RCGTATCATERLAHFLNRSSF[Sar]A[NMeI]LSSTEVGSFT[Hyp]-NH2; disulfide 2-7)	110	150							
CC[C@H](C)[C@@H](C(=O)N[C@@H](CC(C)C)C(=O)N[C@@H](CO)C(=O)N[C@@H](CO)C(=O)N[C@H](C(=O)N[C@@H](CCC(=O)O)C(=O)N[C@H](C(=O)NCC(=O)N[C@@H](CO)C(=O)N[C@@H](CO)C(=O)N[C@H](C(=O)N1CCC[C@H]1C(N)=O)[C@@H](C)O)C(C)C)[C@@H](C)O)N(C)C(=O)[C@H](C)NC(=O)CN(C)C(=O)[C@H](Cc1ccccc1)NC(=O)[C@H](CO)NC(=O)[C@H](CO)NC(=O)[C@H](CCCNC(=N)N)NC(=O)[C@H](Cc1c[nH]cn1)NC(=O)[C@H](CC(C)C)NC(=O)[C@H](Cc1ccccc1)NC(=O)[C@H](Cc1c[nH]cn1)NC(=O)[C@H](C)NC(=O)[C@H](CC(C)C)NC(=O)[C@H](CCCNC(=N)N)NC(=O)[C@H](CCC(=O)O)NC(=O)[C@@H](NC(=O)[C@H](C)NC(=O)[C@@H]1CSSC[C@H](NC(=O)[C@H](CCCNC(=N)N)NC(=O)CC[C@H](NC(=O)CCCCCCCCCCCCCCCCCCC(=O)O)C(=O)O)C(=O)NCC(=O)N[C@@H]([C@@H](C)O)C(=O)N[C@@H](C)C(=O)N[C@@H]([C@@H](C)O)C(=O)N1)[C@@H](C)O [Compound 37, [19CD]-isoGlu-R-C( )-GTAT-C( )-ATERLAHFLHRSSF-Gly(Me)-A-Ile(Me)-LSSTEVGSSTP-NH2] ({C20 diacid-γGlu}-RCGTATCATERLAHFLHRSSF[Sar]A[NMeI]LSSTEVGSSTP-NH2; disulfide 2-7)	40	70							
CC[C@H](C)[C@@H](C(=O)N[C@@H](CC(C)C)C(=O)N[C@@H](CO)C(=O)N[C@@H](CO)C(=O)N[C@H](C(=O)N[C@@H](CCC(=O)O)C(=O)N[C@H](C(=O)NCC(=O)N[C@@H](CO)C(=O)N[C@H](C(=O)N[C@H](C(=O)N1C[C@H](O)C[C@H]1C(N)=O)[C@@H](C)O)[C@@H](C)O)C(C)C)[C@@H](C)O)N(C)C(=O)[C@H](C)NC(=O)CN(C)C(=O)[C@H](Cc1ccccc1)NC(=O)[C@H](CO)NC(=O)[C@H](CO)NC(=O)[C@H](CCCNC(=N)N)NC(=O)[C@@H](NC(=O)[C@H](CC(C)C)NC(=O)[C@H](Cc1ccccc1)NC(=O)[C@H](Cc1c[nH]cn1)NC(=O)[C@H](C)NC(=O)[C@H](CC(C)C)NC(=O)[C@H](CCCNC(=N)N)NC(=O)[C@H](CCC(=O)O)NC(=O)[C@@H](NC(=O)[C@H](C)NC(=O)[C@@H]1CSSC[C@H](NC(=O)[C@H](CCCNC(=N)N)NC(=O)CC[C@H](NC(=O)CCCCCCCCCCCCCCCCCCC(=O)O)C(=O)O)C(=O)NCC(=O)N[C@@H]([C@@H](C)O)C(=O)N[C@@H](C)C(=O)N[C@@H]([C@@H](C)O)C(=O)N1)[C@@H](C)O)[C@@H](C)O [Compound 48, [19CD]-isoGlu-R-C( )-GTAT-C( )-ATERLAHFLTRSSF-Gly(Me)-A-Ile(Me)-LSSTEVGSTT-Hyp-NH2] ({C20 diacid-γGlu}-RCGTATCATERLAHFLTRSSF[Sar]A[NMeI]LSSTEVGSTT[Hyp]-NH2; disulfide 2-7)		260	FND	FND	FND	A (A = >90%)	A (A = >90%)	A (A = >90%)	A (A = >90%)
